From patent US20090291083A1, “BARB4 TARGET, ANTIBODY DESIGNATED BARB4, BARB4 RELATED ANTIBODIES, AND METHODS OF MAKING AND USING SAME” (PATRYS LIMITED, priority 2008, published 2009) come the findings set out here.

Like-named read-outs stand apart in the source and are kept apart here.

Common to all, as to assay: MTT cell proliferation assay (Table 2)
Holding throughout (assay type): cell-based, human
(Tetrazolium dyes change colour on reduction, which living cells bring about.)

One assay concerns H460. Here is the method:
(§1) BARB4 was also evaluated for inhibition of proliferation of other cancer cell lines, including BxPC-3, COLO 205, H460, MDA-MB-231 and MIAPaCa-2 cells, as well as HT-29, HCT-116, BxPC-3, PANC-1, A549, PC-3 and HCT116 cells. In brief, various human cancer cell lines obtained from the American Type Culture Collection (ATCC) were established using standard in vitro culture methods and ATCC recommended media in 175 cm2 BD tissue culture treated flasks. In particular, MDAMB-231 cultures were incubated in a humidified 37° C., 100% air incubator, and BxPC-3, COLO 205, H460 and MIAPaCa-2 cultures were incubated in a humidified 37° C., 5% CO2, 95% air incubator. Cultures were sub-cultivated regularly to maintain log phase growth. All cell lines were brought up from cryopreservation using the original recommended ATCC media type and supplements. Cell line specific seeding densities were based on historical data from MIR Preclinical Services for growth over a 72 hr period.
(§2) On the day of IC50 plate seeding, the adherent cells were removed from the flasks for each cell line using trypsin EDTA, 1× (Cell Gro #25-053-CI). Trypsin was deactivated using complete media and the cells were pooled (each line done separately). The pooled cells in complete media were counted using trypan blue exclusion with a Neubauer Bright-Line® hemacytometer. The percent viability for each cell line was as follows:
(§3) Based on live cell counts, each suspension was then diluted in complete media (containing required supplements) to achieve the desired seeding density for each cell line. Once seeded, the cells were allowed to attach to the plates overnight and then treated with BA4 or cisplatin 24 hr post-seeding.
(§4) BARB4 was serially diluted 1:2 (2× final conc. in dilution reservoir=1600 μg/ml) in media to achieve a final 800 μg/ml starting concentration in the top dosage wells of the treatment plate by diluting 1:2 when transferred from the reservoir to the treatment plate. Antibody was added to columns 1 through 10 of the treatment plate. Column 11 was for cells+media only control and column 12 was for a media only blank. Cisplatin (positive control) was manufactured by Sigma (# M4394, lot 087K1349) and supplied as a fine, dark yellow powder, in an amber vial, stored at room temperature and housed in a covered box to prevent exposure to light. Cisplatin was previously dissolved in 0.9% saline to make a clear, colorless 4 mM stock solution, aliquoted and frozen at −20° C. Frozen aliquots were quickly thawed by holding the tubes in hand, placed on wet ice and diluted (2× conc. dilution reservoir) to achieve a final 1 mM starting concentration in the top dosage wells of the treatment plate (diluted 1:2 when transferred from the dilution reservoir to the treatment plate). Serial dilutions of 1:4 were made from wells 1 through 10 of the dilution reservoir prior to transfer to the treatment plate.
(§5) The BARB4 stock solution (10.5 mg/ml) was prepared by dilution in complete media according to the table below for a final starting treatment concentration of 800 μg/ml. The 4 mM stock solution of cisplatin in 0.9% saline was diluted in complete media for a final starting treatment concentration of 1 mM.
(§6) Cells were exposed to BARB4 or cisplatin for a 24 hr period. The plates were incubated overnight at 37° C. At 24 hr and 48 hr post-treatment, the MTT assay was performed as described below.
(§7) The anti-proliferative activity of BARB4 and cisplatin was evaluated using the MTT cell proliferation assay (ATCC catalog #30-1010K). The assay is based on the reduction of yellow tetrazolium MTT (3-(4,5-dimethylthiazolyl-2)-2,5-diphenyltetrazolium bromide) by metabolically active cells forming purple formazan crystals. […]

The test system of a further assay is MDA-MB-231. On the procedure:
as §1, §2, §3, §4, §5, §6, §7

In a further assay the test system is COLO 205. On the procedure:
as §1, §2, §3, §4, §5, §6, §7

A further assay has as its system MIAPaCa-2. Here is the method:
as §1, §2, §3, §4, §5, §6, §7

The subject of a further assay is BxPC-3. On the procedure: as §1, §2, §3, §4, §5, §6, §7
[1] abbreviates: MTT 24 hr post-treatment, read-out: IC50, Cisplatin (24 hr).
Where [2] appears, read: MTT 48 hr post-treatment, read-out: IC50, Cisplatin (48 hr).

Consider `N.N.[Cl][Pt][Cl]` [Cisplatin, reference compound], for which the IC50 – broadly, the concentration at which inhibition is half-maximal – with H460 (setting [1]) stood at 63.3 µM; in the assay with H460 (setting [2]) it was 6.37 µM; with MDA-MB-231 (setting [1]), 97.5 µM; in the assay with MDA-MB-231 (setting [2]), 233 µM; in the assay with COLO 205 (setting [1]), 58.5 µM; with COLO 205 (setting [2]) it was 62.9 µM. Moreover, the IC50 with MIAPaCa-2 (setting [1]) stood at 43.9 µM; in the assay with MIAPaCa-2 (setting [2]), 29.8 µM; in the assay with BxPC-3 (BxPC-3, MTT 24 hr post-treatment, read-out: IC50, Cisplatin (24 hr)), 39.2 µM; with BxPC-3 (BxPC-3, MTT 48 hr post-treatment, read-out: IC50, Cisplatin (48 hr)), 9.41 µM; with BxPC-3 (BxPC-3 repeat, MTT 24 hr post-treatment, read-out: IC50, Cisplatin (24 hr)), 13.6 µM; in the assay on BxPC-3 (BxPC-3 repeat, MTT 48 hr post-treatment, read-out: IC50, Cisplatin (48 hr)) it was 5.65 µM.
